Assay results published in patent publication US9745320B2, “Five-and-six-membered heterocyclic compound, and preparation method, pharmaceutical composition and use thereof” (SHANGHAI CHEMEXPLORER CO., LTD., priority 2013, dated 2017).

Legend:
Assay type in all cases: biochemical
JAK3 = molecular target: T1, JAK3 (Homo sapiens, UniProt P52333); assay: JAK 3 enzymatic inhibitory activity IC50 assay (Caliper conversion rate); conditions: Km ATP, 28° C., 1 hour; read-out: JAK 3 enzymatic inhibitory activity IC50
T1 sequence (P52333 1-1124): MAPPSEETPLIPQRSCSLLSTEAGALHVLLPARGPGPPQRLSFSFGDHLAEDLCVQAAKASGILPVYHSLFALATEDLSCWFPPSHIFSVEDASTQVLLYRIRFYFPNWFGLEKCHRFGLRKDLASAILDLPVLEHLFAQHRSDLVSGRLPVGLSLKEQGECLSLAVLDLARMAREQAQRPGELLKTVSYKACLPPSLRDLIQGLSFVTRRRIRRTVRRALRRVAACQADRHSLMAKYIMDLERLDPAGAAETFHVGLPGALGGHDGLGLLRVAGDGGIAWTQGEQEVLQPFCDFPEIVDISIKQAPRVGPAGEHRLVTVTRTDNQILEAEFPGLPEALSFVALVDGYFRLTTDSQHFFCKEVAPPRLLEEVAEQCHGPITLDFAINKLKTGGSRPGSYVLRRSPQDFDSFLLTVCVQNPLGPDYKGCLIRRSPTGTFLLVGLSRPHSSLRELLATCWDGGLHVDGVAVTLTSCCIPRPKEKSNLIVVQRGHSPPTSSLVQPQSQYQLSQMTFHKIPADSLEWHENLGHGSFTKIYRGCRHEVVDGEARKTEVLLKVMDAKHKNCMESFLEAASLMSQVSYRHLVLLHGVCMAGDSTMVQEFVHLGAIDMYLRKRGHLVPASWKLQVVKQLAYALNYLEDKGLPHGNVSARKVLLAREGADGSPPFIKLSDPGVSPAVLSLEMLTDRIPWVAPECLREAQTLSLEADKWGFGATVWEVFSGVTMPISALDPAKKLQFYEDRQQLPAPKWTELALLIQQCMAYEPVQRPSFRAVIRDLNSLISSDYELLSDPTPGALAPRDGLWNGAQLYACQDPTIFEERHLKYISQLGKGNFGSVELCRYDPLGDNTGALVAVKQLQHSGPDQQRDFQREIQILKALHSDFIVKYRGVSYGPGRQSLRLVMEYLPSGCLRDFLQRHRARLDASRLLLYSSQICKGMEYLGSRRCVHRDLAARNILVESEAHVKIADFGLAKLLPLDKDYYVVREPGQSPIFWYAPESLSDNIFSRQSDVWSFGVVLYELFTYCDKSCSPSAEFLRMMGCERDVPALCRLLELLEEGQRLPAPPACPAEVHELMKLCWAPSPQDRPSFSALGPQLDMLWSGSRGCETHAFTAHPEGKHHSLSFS
Description: (§1) Biological effect: intracytoplasmic JAK 1,2,3 enzymatic inhibitory activity IC50 assay
(§2) JAK1 buffer solution: 25 mM HEPES, pH 7.5, 0.01% Brij-35, 0.01 M Triton. JAK2,3 buffer solution: 50 mM HEPES, pH 7.5, 0.0015% Brij-35.
(§3) 2. Compound was formulated in 100% DMSO in a concentration gradient, deposited to a 384-well plate with a final concentration of 2% of DMSO.
3. JAK2,3 enzymes were diluted to having an optimum concentration with the following buffer: 50 mM HEPES, pH 7.5, 0.0015% Brij-35, 2 mM DTT. JAK1 enzyme was diluted to having an optimum concentration with the following buffer: 25 mM HEPES, pH 7.5, 0.01% Brij-35, 2 mM DTT, 0.01M Triton. Then they were transferred to a 384-well plate and incubated with the compound for a certain time. […]
(§4) 5. Read the conversion rate by Caliper Reader, and the inhibition rate are calculated according to the average of two tests.

JAK2 = JAK2 (Homo sapiens, UniProt O60674); assay: JAK 2 enzymatic inhibitory activity IC50 assay (Caliper conversion rate); conditions: Km ATP, 28° C., 1 hour
JAK2, sequence (O60674 whole entry, species assumed): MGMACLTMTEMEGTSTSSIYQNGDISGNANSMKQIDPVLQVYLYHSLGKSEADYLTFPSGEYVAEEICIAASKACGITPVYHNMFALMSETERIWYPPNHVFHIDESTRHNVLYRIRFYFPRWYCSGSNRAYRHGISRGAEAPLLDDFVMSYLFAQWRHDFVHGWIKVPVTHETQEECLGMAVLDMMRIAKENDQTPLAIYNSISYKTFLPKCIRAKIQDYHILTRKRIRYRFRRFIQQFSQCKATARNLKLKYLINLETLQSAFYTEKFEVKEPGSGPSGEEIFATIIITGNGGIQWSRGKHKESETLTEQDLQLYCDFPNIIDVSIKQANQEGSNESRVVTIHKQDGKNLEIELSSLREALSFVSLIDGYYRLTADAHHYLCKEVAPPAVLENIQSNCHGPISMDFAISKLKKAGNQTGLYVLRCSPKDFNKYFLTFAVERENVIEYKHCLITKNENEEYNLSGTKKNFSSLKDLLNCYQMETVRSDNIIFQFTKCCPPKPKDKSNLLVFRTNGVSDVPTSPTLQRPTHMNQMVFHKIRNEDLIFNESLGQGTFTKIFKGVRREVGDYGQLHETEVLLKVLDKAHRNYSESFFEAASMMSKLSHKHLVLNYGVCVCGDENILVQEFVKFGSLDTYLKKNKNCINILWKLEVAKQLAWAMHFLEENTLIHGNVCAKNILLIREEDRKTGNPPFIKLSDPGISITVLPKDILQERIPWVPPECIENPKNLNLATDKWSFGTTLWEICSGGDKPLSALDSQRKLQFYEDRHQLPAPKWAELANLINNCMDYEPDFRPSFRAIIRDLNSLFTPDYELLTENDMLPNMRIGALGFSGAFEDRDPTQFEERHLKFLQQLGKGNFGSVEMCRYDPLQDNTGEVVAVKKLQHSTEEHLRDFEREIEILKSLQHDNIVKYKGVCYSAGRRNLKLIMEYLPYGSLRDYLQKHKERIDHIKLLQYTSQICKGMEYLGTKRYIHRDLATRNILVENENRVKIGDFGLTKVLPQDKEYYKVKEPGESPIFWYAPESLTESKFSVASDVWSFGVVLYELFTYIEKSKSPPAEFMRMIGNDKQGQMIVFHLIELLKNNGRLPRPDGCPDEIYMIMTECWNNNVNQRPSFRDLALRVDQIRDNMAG
Description: as §1, §2, §3
(§5) 3. JAK2,3 enzymes were diluted to having an optimum concentration with the following buffer: 50 mM HEPES, pH 7.5, 0.0015% Brij-35, 2 mM DTT. JAK1 enzyme was diluted to having an optimum concentration with the following buffer: 25 mM HEPES, pH 7.5, 0.01% Brij-35, 2 mM DTT, 0.01M Triton. Then they were transferred to a 384-well plate and incubated with the compound for a certain time.
(§6) 4. JAK2,3 substrate was diluted to having an optimum concentration with the following buffer: 50 mM HEPES, pH 7.5, 0.0015% Brij-35, 10 mM MgCl2, Km adenosine triphosphate. JAK1 substrate was diluted to having an optimum concentration with the following buffer: 25 mM HEPES, pH 7.5, 0.01% Brij-35, 10 mM MgCl2, 0.01 M Triton. Km adenosine triphosphate was added into 384-well plates to initiate reactions, and the reaction were carried out at 28° C. for 1 hour.
as §4

JAK1 = JAK1 (Homo sapiens, UniProt P23458); assay: JAK 1 enzymatic inhibitory activity IC50 assay (Caliper conversion rate); conditions: Km ATP, 28° C., 1 hour
JAK1, sequence (P23458 whole entry, species assumed): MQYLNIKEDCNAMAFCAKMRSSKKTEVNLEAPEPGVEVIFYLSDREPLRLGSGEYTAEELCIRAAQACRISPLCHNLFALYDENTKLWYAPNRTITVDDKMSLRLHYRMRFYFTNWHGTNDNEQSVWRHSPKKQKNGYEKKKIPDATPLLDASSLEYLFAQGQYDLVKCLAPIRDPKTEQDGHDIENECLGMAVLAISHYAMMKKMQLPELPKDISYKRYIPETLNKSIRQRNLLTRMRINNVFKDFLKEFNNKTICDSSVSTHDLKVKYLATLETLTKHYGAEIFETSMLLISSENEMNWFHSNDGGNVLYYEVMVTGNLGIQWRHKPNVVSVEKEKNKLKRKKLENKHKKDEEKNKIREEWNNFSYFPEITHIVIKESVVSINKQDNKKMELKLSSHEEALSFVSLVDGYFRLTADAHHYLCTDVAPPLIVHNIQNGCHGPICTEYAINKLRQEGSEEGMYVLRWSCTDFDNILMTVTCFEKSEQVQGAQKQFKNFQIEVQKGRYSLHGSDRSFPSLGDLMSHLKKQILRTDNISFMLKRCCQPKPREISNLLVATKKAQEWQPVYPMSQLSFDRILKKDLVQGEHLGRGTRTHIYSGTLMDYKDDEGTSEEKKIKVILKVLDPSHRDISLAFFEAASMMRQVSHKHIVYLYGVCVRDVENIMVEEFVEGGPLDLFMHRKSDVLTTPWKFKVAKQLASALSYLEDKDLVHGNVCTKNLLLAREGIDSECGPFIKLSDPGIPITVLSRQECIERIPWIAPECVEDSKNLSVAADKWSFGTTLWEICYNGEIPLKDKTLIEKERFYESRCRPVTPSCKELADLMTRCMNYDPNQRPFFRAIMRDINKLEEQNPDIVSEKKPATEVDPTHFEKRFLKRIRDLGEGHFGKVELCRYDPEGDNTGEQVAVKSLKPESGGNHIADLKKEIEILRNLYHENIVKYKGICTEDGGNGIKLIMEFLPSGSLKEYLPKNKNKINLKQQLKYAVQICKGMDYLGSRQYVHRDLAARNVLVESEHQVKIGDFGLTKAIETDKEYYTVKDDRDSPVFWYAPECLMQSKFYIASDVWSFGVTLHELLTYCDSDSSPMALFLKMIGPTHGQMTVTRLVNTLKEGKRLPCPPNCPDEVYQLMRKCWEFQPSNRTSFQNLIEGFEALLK
Description: as §1, §2, §3, §5, §6, §4

IC50 (JAK3) | IC50 (JAK2) | IC50 (JAK1) | SMILES
< 50 nM | < 50 nM | < 50 nM | CCS(=O)(=O)N1CC(CC#N)(n2cc(-c3nc(Nc4cnn(C5CCOCC5)c4)nc4ccsc34)cn2)C1 [Compound T-38, 2-(1-(Ethylsulfonyl)-3-(4-(2-((1-(tetrahydro-2H-pyran-4-yl)-1H-pyrazol-4-yl)amino)thieno[3,2-d]pyrimidin-4-yl)-1H-pyrazol-1-yl)azetidin-3-yl)acetonitrile]
< 50 nM | < 50 nM | 50 to 500 nM | CCS(=O)(=O)N1CC(CC#N)(n2cc(-c3nc(Nc4cnn(C5COC5)c4)nc4ccsc34)cn2)C1 [Compound T-39, 2-(1-(Ethylsulfonyl)-3-(4-(2-((1-(oxetan-3-yl)-1H-pyrazol-4-yl)amino)thieno[3,2-d]pyrimidin-4-yl)-1H-pyrazol-1-yl)azetidin-3-yl)acetonitrile]
< 50 nM | < 50 nM | < 50 nM | CCn1cc(Nc2nc(-c3cnn(C4(CC#N)CN(S(=O)(=O)CC)C4)c3)c3sccc3n2)cn1 [Compound T-40, 2-(3-(4-(2-((1-Ethyl-1H-pyrazol-4-yl)amino)thieno[3,2-d]pyrimidin-4-yl)-1H-pyrazol-1-yl)-1-(ethylsulfonyl)azetidin-3-yl)acetonitrile]
< 50 nM | < 50 nM | < 50 nM | CCS(=O)(=O)N1CC(CC#N)(n2cc(-c3nc(Nc4cnn(C(C)C)c4)nc4ccsc34)cn2)C1 [Compound T-41, 2-(1-(Ethylsulfonyl)-3-(4-(2-((1-isopropyl-1H-pyrazol-4-yl)amino)thieno[3,2-d]pyrimidin-4-yl)-1H-pyrazol-1-yl)azetidin-3-yl)acetonitrile]
> 1000 nM | 50 to 500 nM | 500 to 1000 nM | Cn1cc(Nc2nc(-c3cnn(C4(CC#N)COC4)c3)c3ccsc3n2)cn1 [Compound T-42, 2-(3-(4-(2-((1-Methyl-1H-pyrazol-4-yl)amino)thieno[2,3-d]pyrimidin-4-yl)-1H-pyrazol-1-yl)oxetan-3-yl)acetonitrile]
50 to 500 nM | < 50 nM | 50 to 500 nM | Cn1cc(Nc2nc(-c3cnn(C4(CC#N)COC4)c3)c3sccc3n2)cn1 [Compound T-43, 2-(3-(4-(2-((1-Methyl-1H-pyrazol-4-yl)amino)thieno[3,2-d]pyrimidin-4-yl)-1H-pyrazol-1-yl)oxetan-3-yl)acetonitrile]
50 to 500 nM | < 50 nM | 50 to 500 nM | Cn1cc(Nc2nc(-c3cnn(C4(CC#N)CCOCC4)c3)c3sccc3n2)cn1 [Compound T-44, 2-(4-(4-(2-((1-Methyl-1H-pyrazol-4-yl)amino)thieno[3,2-d]pyrimidin-4-yl)-1H-pyrazol-1-yl)tetrahydro-2H-pyran-4-yl)acetonitrile]
50 to 500 nM | < 50 nM | < 50 nM | CCS(=O)(=O)N1CC(CC#N)(n2cc(-c3nc(Nc4ccc(-c5nn[nH]n5)cc4)nc4ccsc34)cn2)C1 [Compound T-45, 2-(3-(4-(2-((4-(2H-Tetrazol-5-yl)phenyl)amino)thieno[3,2-d]pyrimidin-4-yl)-1H-pyrazol-1-yl)-1-(ethylsulfonyl)azetidin-3-yl)acetonitrile]
500 to 1000 nM | < 50 nM | 50 to 500 nM | CCC(=O)N1CC(CC#N)(n2cc(-c3nc(Nc4cnn(C)c4)nc4ccsc34)cn2)C1 [Compound T-46, 2-(3-(4-(2-((1-Methyl-1H-pyrazol-4-yl)amino)thieno[3,2-d]pyrimidin-4-yl)-1H-pyrazol-1-yl)-1-propionylazetidin-3-yl)acetonitrile]
> 1000 nM | 500 to 1000 nM | 500 to 1000 nM | CCS(=O)(=O)N1CC(CC#N)(n2cc(-c3nc(Nc4ccnnc4)nc4ccsc34)cn2)C1 [Compound T-47, 2-(1-(Ethylsulfonyl)-3-(4-(2-(pyridazin-4-ylamino)thieno[3,2-d]pyrimidin-4-yl)-1H-pyrazol-1-yl)azetidin-3-yl)acetonitrile]
> 1000 nM | 50 to 500 nM | > 1000 nM | CCS(=O)(=O)N1CC(CC#N)(n2cc(-c3nc(Nc4cn(C)cn4)nc4ccsc34)cn2)C1 [Compound T-48, 2-(1-(Ethylsulfonyl)-3-(4-(2-((1-methyl-1H-imidazol-4-yl)amino)thieno[3,2-d]pyrimidin-4-yl)-1H-pyrazol-1-yl)azetidin-3-yl)acetonitrile]
500 to 1000 nM | < 50 nM | 500 to 1000 nM | Cn1cc(Nc2nc(-c3cnn(C4(CC#N)CN(C(=O)CO)C4)c3)c3sccc3n2)cn1 [Compound T-49, 2-(1-(2-Hydroxyacetyl)-3-(4-(2-((1-methyl-1H-pyrazol-4-yl)amino)thieno[3,2-d]pyrimidin-4-yl)-1H-pyrazol-1-yl)azetidin-3-yl)acetonitrile]
500 to 1000 nM | < 50 nM | 500 to 1000 nM | N#CCC1(n2cc(-c3nc(Nc4cnn(CCN5CCOCC5)c4)nc4ccsc34)cn2)CCOCC1 [Compound T-50, 2-(4-(4-(2-((1-(2-Morpholinoethyl)-1H-pyrazol-4-yl)amino)thieno[3,2-d]pyrimidin-4-yl)-1H-pyrazol-1-yl)tetrahydro-2H-pyran-4-yl)acetonitrile]
< 50 nM | < 50 nM | < 50 nM | CCS(=O)(=O)N1CC(CC#N)(n2cc(-c3nc(Nc4cnn(CCO)c4)nc4ccsc34)cn2)C1 [Compound T-51, 2-(1-(Ethylsulfonyl)-3-(4-(2-((1-(2-hydroxyethyl)-1H-pyrazol-4-yl)amino)thieno[3,2-d]pyrimidin-4-yl)-1H-pyrazol-1-yl)azetidin-3-yl)acetonitrile]
50 to 500 nM | < 50 nM | < 50 nM | CCS(=O)(=O)N1CC(CC#N)(n2cc(-c3nc(Nc4cnn(C(C)=O)c4)nc4ccsc34)cn2)C1 [Compound T-52, 2-(3-(4-(2-((1-Acetyl-1H-pyrazol-4-yl)amino)thieno[3,2-d]pyrimidin-4-yl)-1H-pyrazol-1-yl)-1-(ethylsulfonyl)azetidin-3-yl)acetonitrile]
< 50 nM | < 50 nM | 50 to 500 nM | CCS(=O)(=O)N1CC(CC#N)(n2cc(-c3nc(Nc4cnn(CCN5CCOCC5)c4)nc4ccsc34)cn2)C1 [Compound T-53, 2-(1-(Ethylsulfonyl)-3-(4-(2-((1-(2-morpholinoethyl)-1H-pyrazol-4-yl)amino)thieno[3,2-d]pyrimidin-4-yl)-1H-pyrazol-1-yl)azetidin-3-yl)acetonitrile]
50 to 500 nM | < 50 nM | 50 to 500 nM | CCS(=O)(=O)N1CC(CC#N)(n2cc(-c3nc(Nc4cnn(C5CN(C)C5)c4)nc4ccsc34)cn2)C1 [Compound T-54, 2-(1-(Ethylsulfonyl)-3-(4-(2-((1-(1-methylazetidin-3-yl)-1H-pyrazol-4-yl)amino)thieno[3,2-d]pyrimidin-4-yl)-1H-pyrazol-1-yl)azetidin-3-yl)acetonitrile]
